These results are taken from publication PMC11093748, “De novo identification of CD4^+ T cell epitopes” (Nature Methods, 2024).

“And” between values parts separate entries of the source, which are not always exact repeats. Equal entries are not always repeated.

Assay in all cases: I-Ag7 SABR-II library screen, enrichment score
Holding throughout (format): cell-based, mouse

For assay [1], the system named is TCR12. The note with it: TCR_Mean minus PREDICTED_TCR (from LIB_Mean, SLOPE 0.937219, INTERCEPT 1.54064e-5), PZ51. The text has this: (§1) We then asked whether SABR-IIs could be used to present a library of epitopes for CD4^+ T cell antigen discovery. To that end, we constructed a SABR-II library to present epitopes derived from pancreatic islets in I-Ag7 by curating a list of 4,075 published epitopes from the Immune Epitope Database (iedb.org)[50] and a study by Wan et al.[51] (Supplementary Table 1). Of note, this defined library consisted of unmodified epitopes from endogenous proteins, synthetic mimotopes, deamidated epitopes and hybrid insulin peptides (HIPs) that arise from post-translational fusion and are not genetically encoded in vivo[52],[53]. The epitope library was inserted into the I-Ag7 SABR-II backbone through pooled oligonucleotide synthesis, amplification and ligation-free cloning (Extended Data Fig. 3a). The I-Ag7 SABR-II-library was then expressed in NFAT–GFP Jurkat cells. We confirmed that after sequencing, the library accounted for a mean of 708 reads per epitope (Extended Data Fig. 3b). As a proof of concept, we performed co-incubation assays with Jurkat cells expressing the BDC2.5 TCR and sorted the top 1–2% of GFP^+CD69^+ cells at a rate of ~20 min per replicate with three replicates per TCR. We extracted the genomic DNA from sorted cells, amplified the SABR portion of the integrated proviruses and subjected the amplicons to Illumina sequencing (Extended Data Fig. 3c,d). The 1–2% sort gate represents >50-fold enrichment of cognate epitopes with minimal loss of signal (Extended Data Fig. 3e–h). Sequence reads were aligned to the I-Ag7 SABR-II backbone and the corresponding epitopes were scored based on their read counts. For each TCR under investigation, an enrichment score (ES) was determined for all the epitopes in a library. In each experiment, three replicates of a sort with TCR-expressing Jurkat cells were performed and reads were counted post-sequencing. In addition, three replicates of the unsorted library were also sequenced. A linear regression model was built using the unsorted library counts and used to determine the expected abundance of each epitope in the library. The ES was calculated based on the difference between the measured and the expected abundance of each epitope on a per-TCR basis (Fig. 1e). Based on ES values, two quantitative thresholds were used to determine putative cognate epitopes of a given TCR. A high-confidence zone containing clear outliers with a high ES and a low-confidence zone containing weak outliers with a moderately high ES were determined (Fig. 1e). This two-tiered strategy was used to call putative hits from screens. All the top-scoring epitopes for the BDC2.5 TCR were known BDC2.5 ligands containing the WXRM(D/E) motif (Fig. 1f,g, enriched ligands in red), a well-characterized trait of the BDC2.5 TCR[43],[54]–[56]. Across several independent experiments there was limited variation in ES values for the same TCRs and several epitopes fell into high- or low-confidence zones consistently (Extended Data Fig. 4a). Using a different TCR that was isolated from NOD mice, 4-8Ins[57], which recognized the InsB9:23 epitope ([…]), we observed a similar pattern of ES for cognate epitopes (Extended Data Fig. 4b).
(§2) We performed systematic screening of the cloned TCRs against the I-Ag7 SABR-II library. Several TCRs along with a positive control (such as BDC2.5 or 4-8Ins) were screened individually against the library for each sort (Extended Data Fig. 6a and Supplementary Table 4). High- and low-confidence ES zones for each screened TCR were defined by the ES values of the control TCR’s cognate epitopes. For all putative cognate epitopes, single SABR-IIs were constructed, expressed in NFAT–GFP Jurkat cells and used for co-incubation with the corresponding TCRs. Co-incubation assays that yielded a GFP signal higher than that obtained in assays with no TCR were determined to be positive and the epitopes deemed true cognate ligands (Extended Data Fig. 6b,c). […]

The subject of assay [2] is TCR13.
Description: as §1, §2

Assay [3] deals with TCR18.
Description: as §1, §2

In assay [4] the test system is TCR21A. The note with it: TCR_Mean minus PREDICTED_TCR (slope 0.957287, intercept 1.04818e-5 on LIB_Mean), TCR 21A, run PZ56.
Description: as §1, §2

For assay [5], the system named is TCR21B. The note with it: TCR_Mean minus PREDICTED_TCR (slope 0.954708, intercept 1.11146e-5 on LIB_Mean), TCR 21B, run PZ56.
Description: as §1, §2

For assay [6], the system named is TCR23.
Description: as §1, §2

The test system of assay [7] is TCR26. The note with it: TCR_Mean minus PREDICTED_TCR (slope 0.971972, intercept 6.87806e-6 on LIB_Mean), TCR 26, run PZ56.
Description: as §1, §2

Assay [8] relates to TCR29. The note with it: TCR_Mean minus PREDICTED_TCR (slope 0.951614, intercept 1.18738e-5 on LIB_Mean), TCR 29, run PZ98.
Description: as §1, §2

For assay [9], the system named is TCR35. The note with it: TCR_Mean minus PREDICTED_TCR (slope 0.982658, intercept 4.25575e-6 on LIB_Mean), TCR 35, run PZ101.
Description: as §1, §2

In assay [10] the test system is TCR40. The note with it: I-Ag7 SABR-II library PZ101, CD4 TCR 40; TCR_Mean of 3 replicates minus PREDICTED_TCR (slope 0.959981, intercept 9.82052e-6).
Description: as §1, §2

For assay [11], the system named is TCR5.
Description: as §1, §2

Assay [12] relates to TCR6B. The note with it: sheet TCR6B-PZ37; ES = TCRObserved - TCRPredicted; TCRPredicted = LIBObserved x SLOPE + INTERCEPT; SLOPE 0.908569, INTERCEPT 2.24372e-5.
Description: as §1, §2

In assay [13] the test system is TCR8. The note with it: TCR_Mean minus PREDICTED_TCR (from LIB_Mean, SLOPE 0.946603, INTERCEPT 1.31036e-5), PZ47.
Description: as §1, §2

The test system of assay [14] is TCR9. The note with it: TCR_Mean minus PREDICTED_TCR (from LIB_Mean, SLOPE 0.950453, INTERCEPT 1.21587e-5), PZ47.
Description: as §1, §2

The mark [15] stands for this setting: I-Ag7 library, one biological experiment.
Where [16] appears, read: TCR13, TCR_Mean minus PREDICTED_TCR (from LIB_Mean, SLOPE 0.90397, INTERCEPT 2.35655e-5), PZ51.
Setting [17] is: TCR18, TCR_Mean minus PREDICTED_TCR (from LIB_Mean, SLOPE 0.92089, INTERCEPT 1.94136e-5), PZ52.
Setting [18] is: TCR_Mean minus PREDICTED_TCR (slope 0.987149, intercept 3.15366e-6 on LIB_Mean), TCR 23, run PZ56.
The mark [19] stands for this setting: sheet TCR5-PZ44, ES = TCRObserved - TCRPredicted, TCRPredicted = LIBObserved x SLOPE + INTERCEPT, SLOPE 0.90726, INTERCEPT 2.27584e-5.

On to AAVEEGIVAGGGVTLL, for which the “Enrichment score” value in [1] was -3.643e-5; in assay [2] (setting [15]) it was 0.0001546; in assay [2] (setting [16]), 0.0001546; in [3] (setting [15]) it was -8.9534e-5; in assay [3] (setting [17]), -8.9534e-5; in assay [4], 7.745e-5. Moreover, the “Enrichment score” value in assay [5] is listed as -9.242e-5; in [6] (setting [15]), -9.242e-5; in assay [6] (setting [18]), 8.213e-5; in assay [7], -0.0002176; in assay [8], -4.805e-5; in [9], -8.894e-5. Also, the “Enrichment score” value in assay [10] is 6.713e-5; in assay [11] (setting [15]), 2.521e-5 and 3.881e-5; in [11] (setting [19]), 2.521e-5; in [12] it was 4.397e-5; in [13], -2.679e-5; in [14] it was -0.0001033.
Regarding AEKVRNLPAGHGLNAQ, the “Enrichment score” value in assay [1] is -0.0001285; in [2] (setting [15]), 0.000137; in assay [2] (setting [16]) it was 0.000137; in assay [3] (setting [15]) it was 0.0001149; in assay [3] (setting [17]) it was 0.0001149; in assay [4], 0.0001683. Moreover, the “Enrichment score” value in [5] is listed as 8.732e-6; in [6] (setting [15]), 8.732e-6; in assay [6] (setting [18]), 0.0001238; in assay [7] it was 4.292e-6; in assay [8], -9.799e-5; in assay [9] it was -0.0001779. The “Enrichment score” value is given as -9.416e-5 in [10]; 1.968e-5 in assay [11] (setting [19]); -0.0001883 in assay [12]; -5.38e-5 in [13]; 2.252e-5 in [14].
Regarding AGGVAVIKAGAATEV, the “Enrichment score” value is given as -1.359e-5 in assay [1]; 0.0001675 in assay [2] (setting [15]); 0.0001675 in assay [2] (setting [16]); -7.134e-5 in assay [3] (setting [15]); -7.134e-5 in assay [3] (setting [17]); 3.881e-5 in assay [4]. In addition, the “Enrichment score” value in [5] is -9.6548e-5; in assay [6] (setting [15]), -9.6548e-5; in assay [6] (setting [18]), -7.52e-5; in [7] it was -8.754e-5; in [8], -4.862e-5; in assay [9], 7.19e-5. Moreover, the “Enrichment score” value is 8.867e-6 in [10]; -1.203e-5 in assay [11] (setting [19]); 0.0001547 in assay [12]; -5.809e-5 in assay [13]; -1.065e-5 in [14].
On to AKAAVEEGIVAGGGV, for which the “Enrichment score” value is on record as -1.697e-5 in assay [1]; 0.0001008 in assay [2] (setting [15]); 0.0001008 in assay [2] (setting [16]); -0.0001034 in assay [3] (setting [15]); -0.0001034 in assay [3] (setting [17]); -4.928e-5 in assay [4]. In addition, the “Enrichment score” value in assay [5] is recorded as -2.11e-5; in assay [6] (setting [15]), -2.11e-5; in assay [6] (setting [18]) it was -9.2e-5; in [7], -6.247e-5; in assay [8] it was -1.352e-5; in assay [9], -4.28e-5. Besides, the “Enrichment score” value in assay [10] was -1.429e-5; in [11] (setting [19]) it was 4.678e-5; in [12], 0.0001193; in [13], 4.499e-5; in assay [14] it was 0.0002844.
For ALVREGLRNVAAGANP, the “Enrichment score” value is -1.438e-5 in assay [1]; -2.357e-5 in assay [2] (setting [15]); -2.357e-5 in assay [2] (setting [16]); -1.951e-5 in [3] (setting [15]); -1.951e-5 in assay [3] (setting [17]); -1.111e-5 in assay [4]. In addition, the “Enrichment score” value in assay [5] is -1.174e-5; in [6] (setting [15]), -1.174e-5; in [6] (setting [18]) it was -3.805e-6; in assay [7], -7.519e-6; in [8], -1.187e-5; in assay [9], -4.256e-6. In addition, the “Enrichment score” value in assay [10] was -9.821e-6; in [11] (setting [19]) it was -2.1402e-5; in assay [12], -2.303e-5; in [13] it was -1.329e-5; in [14], -9.186e-6.
